Here are results for one compound from patent US20260241008A1, “COMPOSITION CONTAINING SELF-ASSEMBLED STRUCTURE AND FREEZE-DRIED PRODUCT THEREOF” (Resonac Corporation, priority 2023, published 2026).

This data set in a line: Krafft point of TPNa aqueous solution. Type of data set: physicochemical.

Molecules are shown by their SMILES.

Take `Cc1c(C)c2c(c(C)c1OP(=O)([O-])[O-])CCC(C)(CCCC(C)CCCC(C)CCCC(C)C)O2.[Na+].[Na+]` (racemic) [TPNa, sodium salt of the dl-α-tocopheryl phosphate]: the “Krafft point (Kp)” value came to 16.2 °C.
